Experimental data reported in patent publication US10640767B2, “Assay for exo-site binding molecules” (President and Fellows of Harvard College, priority 2016, dated 2020).

Biological target: T1, Recombinant His6-tagged IDE (Homo sapiens, UniProt P14735)
T1 construct: made in house; host or cells: E. coli Rosetta 2 (DE3) pLysS, plasmid pTrcHis-A
T1 sequence (P14735 42-1019): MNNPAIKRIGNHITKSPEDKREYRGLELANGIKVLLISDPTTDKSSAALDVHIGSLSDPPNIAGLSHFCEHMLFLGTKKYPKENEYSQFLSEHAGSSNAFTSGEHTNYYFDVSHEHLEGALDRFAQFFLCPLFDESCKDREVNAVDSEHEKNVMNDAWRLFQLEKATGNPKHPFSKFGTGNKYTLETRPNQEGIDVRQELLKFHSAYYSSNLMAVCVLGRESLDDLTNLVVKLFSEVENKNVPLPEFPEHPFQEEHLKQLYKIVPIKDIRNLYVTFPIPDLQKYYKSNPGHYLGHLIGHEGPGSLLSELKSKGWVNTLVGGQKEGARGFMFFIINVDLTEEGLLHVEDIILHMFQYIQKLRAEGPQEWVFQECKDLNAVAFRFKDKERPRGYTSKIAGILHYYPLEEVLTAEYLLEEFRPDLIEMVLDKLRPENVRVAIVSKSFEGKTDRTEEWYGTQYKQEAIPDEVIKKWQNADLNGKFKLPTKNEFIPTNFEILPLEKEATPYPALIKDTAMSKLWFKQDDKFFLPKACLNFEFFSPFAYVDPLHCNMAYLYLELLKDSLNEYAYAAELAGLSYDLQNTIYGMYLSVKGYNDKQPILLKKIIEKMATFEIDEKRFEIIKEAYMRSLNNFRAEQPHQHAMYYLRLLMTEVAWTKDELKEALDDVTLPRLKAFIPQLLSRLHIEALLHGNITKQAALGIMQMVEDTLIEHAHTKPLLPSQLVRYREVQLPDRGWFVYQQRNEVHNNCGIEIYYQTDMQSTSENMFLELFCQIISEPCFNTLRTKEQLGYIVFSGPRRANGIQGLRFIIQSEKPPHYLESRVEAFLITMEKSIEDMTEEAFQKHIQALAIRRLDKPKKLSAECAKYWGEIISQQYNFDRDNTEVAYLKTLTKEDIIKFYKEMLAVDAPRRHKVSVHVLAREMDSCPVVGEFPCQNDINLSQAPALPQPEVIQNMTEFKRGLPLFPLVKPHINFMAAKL
Experiment: IDE protease activity assay with fluorogenic peptide substrate Mca-RPPGFSAFK(Dnp)-OH
Type: biochemical
Conditions: inhibitor 20 μM final; purified recombinant His6-tagged IDE proteins
Procedure: Recombinant His6-tagged IDE and IDE-A479L were purified by Ni(II)-affinity chromatography (IMAC sepharose beads, GE Healthcare®) according to the manufacturer's instructions. The cell pellets were resuspended in pH 8.0 buffer containing 50 mM phosphate, 300 mM NaCl, 10 mM imidazole, 1% Triton X-100 and 1 mM tris(2-carboxyethyl)phosphine hydrochloride (TCEP), and were lysed by probe sonication for 4 min at <4° C., followed by clearing of cell debris by centrifugation at 10,000 g for 25 min at 4° C. The supernatant was incubated with Ni(II)-doped IMAC resin (2 mL) for 3 h at 4° C. The resin was washed twice with the cell resuspension/lysis buffer, and three times with pH 8.0 buffer containing 50 mM phosphate, 300 mM NaCl, 50 mM imidazole and 1 mM TCEP. Elution was performed in 2 mL aliquots by raising the imidazole concentration to 250 mM and subsequently to 500 mM in the previous buffer. The fractions were combined and the buffer was exchanged to the recommended IDE buffer (R&D) using spin columns with 100 KDa molecular weight cut off membranes (Millipore). Protein yields were typically ˜10 μg/L, and >90% purity based on gel electrophoresis analysis (Coomassie stained).

For `NCCCC[C@@H]1NC(=O)/C=C/C(=O)N[C@H](C(N)=O)CCCCNC(=O)[C@@H](Cc2ccc(C(=O)c3ccccc3)cc2)NC(=O)[C@H](CC2CCCCC2)NC1=O` [6bK], which “IDE-specific protease activity as assessed by inhibition of degradation of peptide substrate Mca-RPPGFSAFK(Dnp)-OH” value is on record?
The value was over 95%.
